The values below come from patent US11186588B2 (AYUMI PHARMACEUTICAL CORPORATION, priority 2017, dated 2021).

The nature of series [1]: Pharmacokinetics test in rats (oral administration). Type of series: in vivo, LEW/CrlCrlj rats. The conditions noted are these: mean n = 4. As for the experimental part:
In order to evaluate the transition of plasma concentration of the present compound after oral administration, pharmacokinetics was evaluated in rats. The specific method is described below.
Appropriate amounts of Example 71 and various salts thereof were weighed, triturated with an agate mortar, and suspended or dissolved in 1% methyl cellulose solution to 2 mg/mL (as a converted quantity of Example 71 considering the correction of purify).
LEW/CrlCrlj rats (male, purchased form Charles River Laboratories Japan, Inc.) were weighted, a random number based on the measured body weight was used to avoid difference in average body weight among groups, and the rats were divided into groups, wherein each groups contained 4 rats. The rats were manually held in hands and forced orally administered each administration solution comprising the compound at a dose of 5 mL/kg into stomach using a feeding needle. At 0.5, 1, 3, 6 and 24 hours after the administration of each administration solution comprising the compound, the rats were manually held in hands, and blood was collected from the jugular vein or subclavian vein using a heparin-treated injection syringe. The obtained blood was centrifuged at 1,500 G for 10 minutes, and plasma was collected as an actual sample. In addition, plasma was collected from rats before the administration of the compound in the same manner, which was used as blank plasma. The collected actual samples and blank plasma were stored in a freezer set at −70° C. until the measurement of the compound concentration. To 20 μL of each actual sample were added 20 μL of acetonitrile (available from Kishida Chemical Co., Ltd., Cat No. 140-00401), 100 μL of MilliQ water and 20 μL of the internal standard solution to prepare an analytical sample. In addition, to 20 μL of blank plasma were added 20 μL or 40 μL of acetonitrile (available from Kishida Chemical Co., Ltd., Cat No. 140-00401) and 100 μL of MilliQ water (a blank sample or a zero sample, respectively). A standard sample for a calibration curve was prepared by mixing 20 μL of blank plasma, 20 μL of the standard solution for a calibration curve in each concentration, 100 μL of MilliQ water and 20 μL of the internal standard solution. Whole amount of the prepared each sample was applied to a diatomaceous earth column for liquid-liquid extraction (available from Biotage, Cat No. 820-0200), tert-butyl methyl ether (available from Kanto Chemical Co., Inc., Cat No. 04418-5B) was added and eluted by natural dropping, and the obtained eluate was concentrated to dryness under a nitrogen stream. The residue was dissolved in the re-dissolved solution and 10 μL of each sample was injected into the LC/MS/MS apparatus.
LC/MS/MS analysis was carried out under the following conditions. Analytical column: Hydrosphere C18, 3 μm, 2.0 mm I.D.×50 mm (from YMC, Cat No. HS12S03-0502WT)
Flow rate: 0.3 mL/min. Column temperature: 50° C. Peak area calculation, peak area ratio calculation, preparation of calibration and quantification used in calculating the concentration for the LC/MS/MS analysis were carried out by Analyst ver.1.6.2 (available from AB Sciex). In addition, by using the obtained concentration measurement results, these were analyzed by Non-compartmental model of a pharmacokinetics analysis program WinNonlin ver.6.1 (Pharsight Corporation), and the pharmacokinetics parameter was calculated.

The test system of the next series is IL-6 production. The series is described as follows: LPS-induced IL-6 production model test. Type of series: in vivo, C57BL/6J mice. As to conditions: 10 mg/kg oral, 30 min before LPS 1 mg/kg i.p., serum IL-6 60 min after LPS, mice. The method, then: In order to evaluate the inhibitory activity of inflammatory cytokine production in the present compounds, LPS-induced IL-6 production model evaluation was carried out. The specific method is described below.
An appropriate amount of each compound was weighed, triturated with an agate mortar, and suspended or dissolved in 1% methyl cellulose solution to prepare 1 mg/mL solution.
C57BL/6J mice (male, Purchaser: Charles River Laboratories Japan, Inc.) were weighted, before divided into normal group, control group and each compound-administered group based on the measured body weight using a random number, wherein each group contained 6 samples. The mice were manually held in hands and forced orally administered the 1% methyl cellulose solution (normal and control group) or each administration solution comprising the compound (each compound-administered group) at a dose of 10 mL/kg into stomach using a feeding needle. After 30 minutes from administration of the 1% methyl cellulose solution or each compound administration solution, the mice were manually held in hands and intraperitoneally administered physiological saline (normal group) or LPS solution (control and each compound-administered group) at a dose of 1 mg/kg. After 60 minutes from administration of the LPS solution, whole blood was collected from the abdominal vena cava of each mouse under isoflurane inhalation anesthesia (available from Mylan Seiyaku Ltd.), and the mice were euthanized. The collected blood was allowed to stand at room temperature for one hour, and then centrifuged at 1,500 G for 10 minutes to collect a serum (supernatant). The collected serum was stored in a deep freezer set at −80° C. until the measurement of IL-6 in the serum. The IL-6 concentration in the serum of each mouse was measured by a commercially available kit (available from R&D systems, Cat No. M6000B), according to the protocol attached thereto.
The IL-6 production inhibition rate (%) was calculated by the following equation using Microsoft EXCEL 2010. IL-6 production inhibition rate (%)=100−{(average value of IL-6 concentration in serum of each compound-administered group)−(average value of IL-6 concentration in serum of normal group))/(average value of IL-6 concentration in serum of control group)−(average value of IL-6 concentration in serum of normal group)}×100

[2] abbreviates: oral 2 mg/mL solution at 5 mL/kg.

Turning to `CC(=O)Nc1ccc(C2=NN(Cc3cccnc3)c3nnc(C)n3-c3sc(C)c(C)c32)cc1.Cc1ccc(S(=O)(=O)O)cc1` [1 Tosylate of Example 71], in series [1] (setting [2]), the AUCinf turned out to be 101.11 ng·h/mL, the AUCt was 95.75 ng·h/mL, the Cmax worked out at 62.1 ng/mL and the Kel came to 0.52 h⁻¹. In series [1] (setting [2]), the MRT worked out at 1.48 h, the T1/2 is recorded as 1.42 h and the Tmax was 0.50 h. For the same molecule, the “Concentration (ng/mL), sampling time 0.5 h” value in series [1] (plasma, 0.5 h after oral 2 mg/mL solution at 5 mL/kg) amounted to 62.1 ng/mL. Besides, in series [1] (plasma, 1 h after oral 2 mg/mL solution at 5 mL/kg), the “Concentration (ng/mL), sampling time 1 h” value was 34.7 ng/mL. In series [1] (plasma, 3 h after oral 2 mg/mL solution at 5 mL/kg), the “Concentration (ng/mL), sampling time 3 h” value was 7.04 ng/mL. Further, in series [1] (plasma, 6 h after oral 2 mg/mL solution at 5 mL/kg), the “Concentration (ng/mL), sampling time 6 h” value is 2.46 ng/mL. Further, the “LPS-induced IL-6 production (% Inhibition @ 10 mg/kg)” value in the series with IL-6 production came to 85.0%.

One may read the Cmax as the peak of the concentration-time curve. A word on the MRT: it is the average time that molecules of a dose stay in the body. A word on the Tmax: it is the time at which the peak concentration occurs.
